Holding throughout (format): in vivo
In assay [1] the test system is common mosquito (Culex pipiens pallens). Description: Test Example 1: common mosquito larvae in diluted emulsifiable concentrate, mortality and emergence inhibition. The settings on record: Culex pipiens, 3.5 ppm; for mortality at 3.5 ppm: 24 h, 20 last instar larvae, after one day, read-out: Mortality; for pest or weed control at 3.5 ppm: counted when all pupae of no treatment group had emerged, read-out: Inhibitory ratio of emergence. On the procedure: The emulsifiable concentrates of the following present compounds obtained according to Formulation example 2 were each diluted with water so as to obtain respective aqueous solutions containing 3.5 ppm of said compounds, respectively. One hundred ml of thus diluted aqueous solutions were poured into respective polyethylene cups of 180 ml volume, and 20 of the last instar larvae of common mosquito (Culex pipiens pallens) were liberated thereto. After one day, the dead or alive of the larvae were examined.
Thereafter, the feed was added to respective cups and the number of emerged pupae of the respective cups was counted when all the pupae of no treatment group had emerged to calculate the inhibitory ratios of the emergence.
The mortality and the inhibitory ratio of the emergence are shown according to the following three criteria: • mortality: A; 90% or more, • B; less than 90% to 10%, • C; less than 10%. • inhibitory: A; 90% or more, ratio of • emergence B; less than 90% to 80% • C; less than 80%.

In assay [2] the test system is tobacco cutworms (Spodoptera litura). As to the kind of experiment: Test Example 2: tobacco cutworm larvae on treated artificial feed. The following applies: Spodoptera litura, 144 h; 150 ppm solution, 2 ml in 13 g artificial feed; 4th instar larvae; six days after; read-out: Mortality (%). The text has this:
The emulsifiable concentrates of the following present compounds obtained according to Formulation example 2 were each diluted with water to obtain respective 667 times dilution aqueous solutions (corresponding to 150 ppm) containing said compounds, respectively. Two ml of thus diluted solutions were impregnated into the artificial feeds (13 g) for tobacco cutworms (Spodoptera litura) and thus prepared feeds were placed in polyethylene cups of 11 cm in diameter, respectively. Ten of the 4th instar larvae were liberated thereon.
Six days after, the dead and alive of the larvae were examined to calculate the mortality (two replications).

Assay [3] has as its system resistant strain of green rice leafhopper (Nephotetix cincticeps). Description: Test Example 3: rice seedling dip test, resistant green rice leafhopper. The settings on record: Nephotettix cincticeps, 24 h, rice seedlings dipped 1 minute; adults of resistant strain; after one day; read-out: LC50 value (ppm). On the procedure:
The emulsifiable concentrates of the following present compounds and control compounds obtained according to Formulation example 2 were each diluted with water to a prescribed concentration, and rice seedlings (about 12 cm in length) were dipped for 1 minute in the resulting aqueous dilute solutions. After air-drying, the seedlings were placed in test tube, and 10 adults of a resistant strain of green rice leafhopper (Nephotetix cincticeps) were liberated in the tube. After one day, the dead and alive of the adults were examined to obtain LC50 (50% lethal concentration)(two replications).

In brackets after ≈: the same amount, converted by molar mass.

For 18 molecules, mortality, pest or weed control and LC50 results are on record in patent publication EP0193189A1, “Novel compound, its production and insecticidal and acaricidal composition containing it as an active ingredient” (SUMITOMO CHEMICAL COMPANY, LIMITED, priority 1985, dated 1986).

Regarding `C#CC(C)(CCCc1ccc(F)c(Oc2ccccc2)c1)c1ccc(OCC=C)cc1` (stereo not shown) [(8)], in assay [1], the mortality at 3.5 ppm was above 90% and the pest or weed control at 3.5 ppm was above 90%. In assay [2], the mortality at 150 ppm came to 100%. The 50% lethal concentration (LC50) in assay [3] worked out at 54 µg/mL (≈ 130 µM).
As for `C#CC(C)(CCCc1ccc(F)c(Oc2ccccc2)c1)c1ccc(Cl)cc1` (stereo not shown) [(10)], in assay [1], the mortality at 3.5 ppm was above 90% and the pest or weed control at 3.5 ppm was above 90%. The mortality at 150 ppm in assay [2] stood at 100%. Also, in assay [3], the median lethal concentration (LC50) turned out to be 32 µg/mL (≈ 81.4 µM).
In the case of `C#CC(C)(CCCc1cccc(Oc2ccccc2)c1)c1ccc2c(c1)OCO2` (stereo not shown) [(14)], in assay [1], the mortality at 3.5 ppm is above 90% and the pest or weed control at 3.5 ppm was above 90%. Further, the mortality at 150 ppm in assay [2] worked out at 100%.
Turning to `C#CC(C)(CCCc1cccc(Oc2ccc(F)cc2)c1)c1ccc(OCC)cc1` (stereo not shown) [(15)], in assay [1], the mortality at 3.5 ppm is above 90% and the pest or weed control at 3.5 ppm was above 90%. Besides, the mortality at 150 ppm in assay [2] came out at 100%. Also, the LC50 in assay [3] is 3.6 µg/mL (≈ 8.94 µM).
Turning to `C#CC(C)(CCCc1cccc(Oc2ccccc2)c1)c1ccc(OCC)c(Cl)c1` (stereo not shown) [(16)], in assay [1], the mortality at 3.5 ppm lay in the range of 10 to 90% and the pest or weed control at 3.5 ppm was above 90%. For the same molecule, the mortality at 150 ppm in assay [2] is 100%. In assay [3], the LC50 came to 15 µg/mL (≈ 35.8 µM).
Consider `C=CC(C)(CCCc1cccc(Oc2ccccc2)n1)c1ccc(OCC)cc1` (stereo not shown) [(19)], for which, in assay [1], the mortality at 3.5 ppm fell in the range of 10 to 90% and the pest or weed control at 3.5 ppm was above 90%.
Turning to `C#CC(C)(CCCc1cccc(Sc2ccccc2)c1)c1ccc(OCC)cc1` (stereo not shown) [(22)], in assay [1], the mortality at 3.5 ppm is 10 to 90% and the pest or weed control at 3.5 ppm is above 90%. Further, the mortality at 150 ppm in assay [2] came out at 100%. Besides, the LC50 in assay [3] was 90 µg/mL (≈ 225 µM).
Turning to `C#CC(C)(CCCc1cccc(Oc2ccccc2)c1)c1ccc(CC)cc1` (stereo not shown) [(23)], in assay [1], the mortality at 3.5 ppm was above 90% and the pest or weed control at 3.5 ppm is above 90%. Besides, the mortality at 150 ppm in assay [2] worked out at 100%. The 50% lethal concentration (LC50) in assay [3] amounted to 40 µg/mL (≈ 109 µM).
With `C#CC(CC)(CCCc1cccc(Oc2ccccc2)c1)c1ccc(Cl)cc1` (stereo not shown) [(26)], in assay [1], the mortality at 3.5 ppm was above 90% and the pest or weed control at 3.5 ppm was above 90%.
For the molecule `C#CC(CCCc1cccc(Oc2ccccc2)c1)c1ccc(OCC)cc1` (stereo not shown) [(28)], in assay [1], the mortality at 3.5 ppm is above 90% and the pest or weed control at 3.5 ppm is above 90%.
Consider `C#CC(CC)(CCCc1ccc(F)c(Oc2ccccc2)c1)c1ccc(OCC)cc1` (stereo not shown) [(29)], for which, in assay [1], the mortality at 3.5 ppm was above 90% and the pest or weed control at 3.5 ppm is above 90%. Further, the mortality at 150 ppm in assay [2] came to 100%.
For `C=CC(C)(CCCc1ccc(F)c(Nc2ccccc2)c1)c1ccc(OCC)cc1` (stereo not shown) [(31)], in assay [1], the mortality at 3.5 ppm is above 90% and the pest or weed control at 3.5 ppm was above 90%. Further, in assay [2], the mortality at 150 ppm came out at 100%.
Take `C#CC(CC)(CCCc1cccc(Oc2ccccc2)c1)c1ccc(OCC)cc1` (stereo not shown) [(32)]: in assay [1], the mortality at 3.5 ppm was above 90% and the pest or weed control at 3.5 ppm was above 90%.
On to `C#CC(C)(CCCc1ccc(F)c(Oc2ccccc2)c1)c1ccc(Cl)c(Cl)c1` (stereo not shown) [(36)], for which, in assay [1], the mortality at 3.5 ppm is 10 to 90% and the pest or weed control at 3.5 ppm is above 90%. Also, the LC50 in assay [3] was 64 µg/mL (≈ 150 µM).
On the same counts, the results for `C#CC(C)(CCCc1ccc(F)c(Oc2ccccc2)c1)c1ccc(OCC=C)c(Cl)c1` (stereo not shown) [(40)] are 10 to 90%, above 90% and 46 µg/mL (≈ 102 µM).
Turning to `C#CC(CC)(CCCc1ccc(F)c(Oc2ccccc2)c1)c1ccc(Cl)cc1` (stereo not shown) [(41)], in assay [1], the mortality at 3.5 ppm was above 90% and the pest or weed control at 3.5 ppm is above 90%.
As for `C#CC(CCCC)(CCCc1ccc(F)c(Oc2ccccc2)c1)c1ccc(OCC)cc1` (stereo not shown) [(42)], in assay [1], the mortality at 3.5 ppm lay within 10 to 90% and the pest or weed control at 3.5 ppm was above 90%. The mortality at 150 ppm in assay [2] came to 100%.
`C#CC(C)(CCCc1cccc(Oc2ccccc2)n1)c1ccc(OC)cc1` (stereo not drawn) [(44), 3-(4-methoxyphenyl)-3-methyl-6-(6-phenoxy-pyridin-2-yl)-l-hexyne]: in assay [1], the mortality at 3.5 ppm lay within 10 to 90% and the pest or weed control at 3.5 ppm is above 90%. Further, in assay [2], the mortality at 150 ppm amounted to 100%.

Usually mortality stands for the share of the test organisms that died. The LC50 is the concentration lethal to half of the exposed cells or organisms.
